Tests used:
NK3 receptor [1] = target: T1, NK3 receptor (Homo sapiens, UniProt P29371); experiment: NK3 receptor affinity (Ki); format: binding
T1 sequence (P29371 1-465): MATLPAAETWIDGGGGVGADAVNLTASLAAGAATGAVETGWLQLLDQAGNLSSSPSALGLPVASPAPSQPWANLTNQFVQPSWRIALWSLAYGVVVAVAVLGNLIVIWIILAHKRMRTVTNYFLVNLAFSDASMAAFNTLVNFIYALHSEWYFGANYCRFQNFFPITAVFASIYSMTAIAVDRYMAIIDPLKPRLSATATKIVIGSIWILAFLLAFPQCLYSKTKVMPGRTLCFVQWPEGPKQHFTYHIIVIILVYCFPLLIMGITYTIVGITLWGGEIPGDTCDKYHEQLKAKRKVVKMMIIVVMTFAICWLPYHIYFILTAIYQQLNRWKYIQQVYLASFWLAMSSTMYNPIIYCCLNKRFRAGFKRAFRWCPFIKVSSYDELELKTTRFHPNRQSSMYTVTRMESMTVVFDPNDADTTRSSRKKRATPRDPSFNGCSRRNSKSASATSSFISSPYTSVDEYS

NK3 receptor [2] = target: T1, NK3 receptor; details: clinical trials; cited from earlier work

Structure (SMILES): CC[C@H](NC(=O)c1c(C)n(-c2ccccc2)c(=O)c2c(Cl)cccc12)c1ccc(Cl)cc1 [Example 1as, 8-Chloro-3-methyl-1-oxo-2-phenyl-1,2-dihydro-isoquinoline-4-carboxylic acid [(S)-1-(4-chloro-phenyl)-propyl]-amide]
- Ki (NK3 receptor [1]): 250 nM

Structure (SMILES): CC[C@H](NC(=O)c1c(C)n(-c2ccccc2)c(=O)c2c(Cl)cccc12)c1ccc(F)cc1 [Example 1at, 8-Chloro-3-methyl-1-oxo-2-phenyl-1,2-dihydro-isoquinoline-4-carboxylic acid [(S)-1-(4-fluoro-phenyl)-propyl]-amide]
- Ki (NK3 receptor [1]): 180 nM

Structure (SMILES): CC[C@H](NC(=O)c1c(C)n(-c2ccccc2)c(=O)c2c(Cl)cccc12)c1ccccc1F [Example 1au, 8-Chloro-3-methyl-1-oxo-2-phenyl-1,2-dihydro-isoquinoline-4-carboxylic acid [(S)-1-(2-fluoro-phenyl)-propyl]-amide]
- Ki (NK3 receptor [1]): 270 nM

Structure (SMILES): CC[C@H](NC(=O)c1c(C)n(-c2ccccc2)c(=O)c2c(Cl)cccc12)c1cccc(Cl)c1 [Example 1av, 8-Chloro-3-methyl-1-oxo-2-phenyl-1,2-dihydro-isoquinoline-4-carboxylic acid [(S)-1-(3-chloro-phenyl)-propyl]-amide]
- Ki (NK3 receptor [1]): 39 nM

Structure (SMILES): Cc1c(C(=O)N[C@H](c2cccc(Cl)c2)C2CC2)c2cccc(Cl)c2c(=O)n1-c1ccccc1 [Example 1aw, 8-Chloro-3-methyl-1-oxo-2-phenyl-1,2-dihydro-isoquinoline-4-carboxylic acid [(S)-(3-chloro-phenyl)-cyclopropyl-methyl]-amide]
- Ki (NK3 receptor [1]): 59 nM

Structure (SMILES): Cc1c(C(=O)N[C@H](c2ccc(Cl)cc2)C2CC2)c2cccc(Cl)c2c(=O)n1-c1ccccc1 [Example 1ax, 8-Chloro-3-methyl-1-oxo-2-phenyl-1,2-dihydro-isoquinoline-4-carboxylic acid [(S)-(4-chloro-phenyl)-cyclopropyl-methyl]-amide]
- Ki (NK3 receptor [1]): 150 nM

Structure (SMILES): CC[C@H](NC(=O)c1c(C)n(-c2ccccc2)c(=O)c2c(Cl)cccc12)c1cccc(F)c1 [Example 1ay, 8-Chloro-3-methyl-1-oxo-2-phenyl-1,2-dihydro-isoquinoline-4-carboxylic acid [(S)-1-(3-fluoro-phenyl)-propyl]-amide]
- Ki (NK3 receptor [1]): 47 nM

Structure (SMILES): Cc1c(C(=O)N[C@H](c2ccc(F)cc2)C2CC2)c2cccc(Cl)c2c(=O)n1-c1ccccc1 [Example 1ba, 8-Chloro-3-methyl-1-oxo-2-phenyl-1,2-dihydro-isoquinoline-4-carboxylic acid [(S)-cyclopropyl-(4-fluoro-phenyl)-methyl]-amide]
- Ki (NK3 receptor [1]): 55 nM

Structure (SMILES): CC[C@H](NC(=O)c1c(C)n(-c2ccccc2)c(=O)c2c(Cl)cccc12)c1ccccc1Cl [Example 1bb, 8-Chloro-3-methyl-1-oxo-2-phenyl-1,2-dihydro-isoquinoline-4-carboxylic acid [(S)-1-(2-chloro-phenyl)-propyl]-amide]
- Ki (NK3 receptor [1]): 240 nM

Structure (SMILES): Cc1c(C(=O)N[C@H](c2ccccc2Cl)C2CC2)c2cccc(Cl)c2c(=O)n1-c1ccccc1 [Example 1bd, 8-Chloro-3-methyl-1-oxo-2-phenyl-1,2-dihydro-isoquinoline-4-carboxylic acid [(S)-(2-chloro-phenyl)-cyclopropyl-methyl]-amide]
- Ki (NK3 receptor [1]): 49 nM

Structure (SMILES): Cc1c(C(=O)N[C@H](c2ccccc2F)C2CC2)c2cccc(Cl)c2c(=O)n1-c1ccccc1 [Example 1be, 8-Chloro-3-methyl-1-oxo-2-phenyl-1,2-dihydro-isoquinoline-4-carboxylic acid [(S)-cyclopropyl-(2-fluoro-phenyl)-methyl]-amide]
- Ki (NK3 receptor [1]): 45 nM

Structure (SMILES): Cc1c(C(=O)N[C@H](c2cccc(F)c2)C2CCC2)c2cccc(Cl)c2c(=O)n1-c1ccccc1 [Example 1bh, 8-Chloro-3-methyl-1-oxo-2-phenyl-1,2-dihydro-isoquinoline-4-carboxylic acid [(S)-cyclobutyl-(3-fluoro-phenyl)-methyl]-amide]
- Ki (NK3 receptor [1]): 31 nM

Structure (SMILES): Cc1c(C(=O)N[C@H](c2ccc(F)cc2)C2CCC2)c2cccc(Cl)c2c(=O)n1-c1ccccc1 [Example 1bi, 8-Chloro-3-methyl-1-oxo-2-phenyl-1,2-dihydro-isoquinoline-4-carboxylic acid [(S)-cyclobutyl-(4-fluoro-phenyl)-methyl]-amide]
- Ki (NK3 receptor [1]): 31 nM

Structure (SMILES): Cc1c(C(=O)N[C@@H](c2cccc(F)c2)C2CC2)c2cccc(Cl)c2c(=O)n1-c1ccccc1 [Example 1bl, 8-Chloro-3-methyl-1-oxo-2-phenyl-1,2-dihydro-isoquinoline-4-carboxylic acid [(R)-cyclopropyl-(3-fluoro-phenyl)-methyl]-amide]
- Ki (NK3 receptor [1]): 810 nM

Structure (SMILES): Cc1c(C(=O)NC(c2ccccc2F)C2CCC2)c2cccc(Cl)c2c(=O)n1-c1ccccc1 (stereo not drawn) [Example 1bo, 8-Chloro-3-methyl-1-oxo-2-phenyl-1,2-dihydro-isoquinoline-4-carboxylic acid [cyclobutyl-(2-fluoro-phenyl)-methyl]-amide]
- Ki (NK3 receptor [1]): 150 nM

Structure (SMILES): Cc1c(C(=O)N[C@H](c2cccc(F)c2)C2CC2)c2cccc(F)c2c(=O)n1-c1ccccc1 [Example 7e, 8-Fluoro-3-methyl-1-oxo-2-phenyl-1,2-dihydro-isoquinoline-4-carboxylic acid [(S)-cyclopropyl-(3-fluoro-phenyl)-methyl]-amide]
- Ki (NK3 receptor [1]): 15 nM

Structure (SMILES): Cc1c(C(=O)N[C@H](c2cccc(F)c2)C2CCC2)c2cccc(F)c2c(=O)n1-c1ccccc1 [Example 7h, 8-Fluoro-3-methyl-1-oxo-2-phenyl-1,2-dihydro-isoquinoline-4-carboxylic acid [(S)-cyclobutyl-(3-fluoro-phenyl)-methyl]-amide]
- Ki (NK3 receptor [1]): 10 nM

Structure (SMILES): CC[C@H](NC(=O)c1c(O)c(-c2ccccc2)nc2ccccc12)c1ccccc1 [talnetant]
- effect on cognitive behaviour of schizophrenics (NK3 receptor [2]): ameliorate the cognitive behaviour of schizophrenics
